The source made the active and inactive calls. How the calls were made is not given here.
Tested on: rodent carcinogenicity bioassays, tumor incidence
Test: CCRIS carcinogenicity studies
Outline: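 Archive of carcinogenicity, mutagenicity, tumor promotion and tumor inhibition results drawn from journals, NCI reports and other sources, expert-reviewed; covers 1985-2011 and is no longer updated.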

`CC(C)NCCCC1(C(N)=O)c2ccccc2-c2ccccc21` was tested, and the carcinogen call (Species: MOUSE, Strain/Sex: B6C3F1/FEMALE, Route: ORAL, Dose: 0, 0.02, 0.04, 0.08% IN DIET FOR APPROXIMATE DAILY DOSES OF 0, 27, 53, 113 MG/KG (STUDY DURATION: 2 YR), Dose: 0, 0.02, 0.04, 0.08% IN DIET FOR APPROXIMATE DAILY DOSES OF 0, 27, 53, 113 MG/KG (STUDY DURATION: 2 YR)) was “inactive; negative”, the carcinogen call (Species: MOUSE, Strain/Sex: B6C3F1/MALE, Route: ORAL, Dose: 0, 0.02, 0.04, 0.08% IN DIET FOR APPROXIMATE DAILY DOSES OF 0, 27, 53, 113 MG/KG (STUDY DURATION: 2 YR), Dose: 0, 0.02, 0.04, 0.08% IN DIET FOR APPROXIMATE DAILY DOSES OF 0, 27, 53, 113 MG/KG (STUDY DURATION: 2 YR)) was “inactive; negative” and the carcinogen call (Species: RAT, Strain/Sex: F344/FEMALE, Route: ORAL, Dose: 0, 0.02, 0.04, 0.08% IN DIET FOR APPROXIMATE DAILY DOSES OF 0, 9, 18, 37 MG/KG (STUDY DURATION: 2 YR), Dose: 0, 0.02, 0.04, 0.08% IN DIET FOR APPROXIMATE DAILY DOSES OF 0, 9, 18, 37 MG/KG (STUDY DURATION: 2 YR)) was “inactive; negative”. For the same molecule, the carcinogen call (Species: RAT, Strain/Sex: F344/MALE, Route: ORAL, Dose: 0, 0.02, 0.04, 0.08% IN DIET FOR APPROXIMATE DAILY DOSES OF 0, 9, 18, 37 MG/KG (STUDY DURATION: 2 YR), Dose: 0, 0.02, 0.04, 0.08% IN DIET FOR APPROXIMATE DAILY DOSES OF 0, 9, 18, 37 MG/KG (STUDY DURATION: 2 YR)) was “inactive; negative”.
In the case of `O=S(=O)([O-])[O-].[Ni+2]`, the carcinogen call (Species: MOUSE, Strain/Sex: B6C3F1/FEMALE, Route: INHALATION, Dose: 0, 0.25, 0.5, 1 MG/M3 6 HR/D 5 D/WK FOR 104 WK (STUDY DURATION: 105 WK), Dose: 0, 0.25, 0.5, 1 MG/M3 6 HR/D 5 D/WK FOR 104 WK (STUDY DURATION: 105 WK)) is reported as “inactive; negative”, the carcinogen call (Species: MOUSE, Strain/Sex: B6C3F1/MALE, Route: INHALATION, Dose: 0, 0.25, 0.5, 1 MG/M3 6 HR/D 5 D/WK FOR 104 WK (STUDY DURATION: 105 WK), Dose: 0, 0.25, 0.5, 1 MG/M3 6 HR/D 5 D/WK FOR 104 WK (STUDY DURATION: 105 WK)) is reported as “inactive; negative” and the carcinogen call (Species: RAT, Strain/Sex: F344/FEMALE, Route: INHALATION, Dose: 0, 0.12, 0.25, 0.5 MG/M3 6 HR/D 5 D/WK FOR 104 WK (STUDY DURATION: 105 WK), Dose: 0, 0.12, 0.25, 0.5 MG/M3 6 HR/D 5 D/WK FOR 104 WK (STUDY DURATION: 105 WK)) is reported as “inactive; negative”. For the same molecule, the carcinogen call (Species: RAT, Strain/Sex: F344/MALE, Route: INHALATION, Dose: 0, 0.12, 0.25, 0.5 MG/M3 6 HR/D 5 D/WK FOR 104 WK (STUDY DURATION: 105 WK), Dose: 0, 0.12, 0.25, 0.5 MG/M3 6 HR/D 5 D/WK FOR 104 WK (STUDY DURATION: 105 WK)) was “inactive; negative”, the carcinogen call (Species: RAT, Strain/Sex: F344/MALE, Route: INTRAMUSCULAR, Dose: 0, 63, 83, UMOL/KG GIVEN IN 14 INJECTIONS OVER 26 D (STUDY DURATION; 2 YR), Dose: 0, 63, 83, UMOL/KG GIVEN IN 14 INJECTIONS OVER 26 D (STUDY DURATION; 2 YR)) was “inactive; negative” and the carcinogen call (Species: Rat, Strain/Sex: Fischer 344/Female (50/group), Route: Oral, Dose: 0, 10, 30, 50 mg/kg/day by gavage once daily for 104 wk, Dose: 0, 10, 30, 50 mg/kg/day by gavage once daily for 104 wk) was “inactive; negative”. The carcinogen call (Species: Rat, Strain/Sex: Fischer 344/Male (50/group), Route: Oral, Dose: 0, 10, 30, 50 mg/kg/day by gavage once daily for 104 wk, Dose: 0, 10, 30, 50 mg/kg/day by gavage once daily for 104 wk) was “inactive; negative”.
`CBr` was tested, and the carcinogen call (Species: DOG, Strain/Sex: BEAGLE/FEMALE, Route: ORAL, Dose: 0, 0.07, 0.12, 0.27 MG/KG/D IN DIET FOR 1 YR (STUDY DURATION: 1 YR), Dose: 0, 0.07, 0.12, 0.27 MG/KG/D IN DIET FOR 1 YR (STUDY DURATION: 1 YR)) was “inactive; negative”, the carcinogen call (Species: DOG, Strain/Sex: BEAGLE/MALE, Route: ORAL, Dose: 0, 0.06, 0.13, 0.28 MG/KG/D IN DIET FOR 1 YR (STUDY DURATION: 1 YR), Dose: 0, 0.06, 0.13, 0.28 MG/KG/D IN DIET FOR 1 YR (STUDY DURATION: 1 YR)) was “inactive; negative” and the carcinogen call (Species: MOUSE, Strain/Sex: B6C3F1/FEMALE, Route: INHALATION, Dose: 0, 10, 33, 100 PPM 6 HR/D 5 D/WK FOR UP TO 103 WK, DOSING IN 100 PPM GROUP DISCONTINUED AFTER 20 WK (STUDY DURATION: 104, Dose: 0, 10, 33, 100 PPM 6 HR/D 5 D/WK FOR UP TO 103 WK, DOSING IN 100 PPM GROUP DISCONTINUED AFTER 20 WK (STUDY DURATION: 104) was “inactive; negative”. The carcinogen call (Species: MOUSE, Strain/Sex: B6C3F1/MALE, Route: INHALATION, Dose: 0, 10, 33, 100 PPM 6 HR/D 5 D/WK FOR UP TO 103 WK, DOSING IN 100 PPM GROUP DISCONTINUED AFTER 20 WK (STUDY DURATION: 104, Dose: 0, 10, 33, 100 PPM 6 HR/D 5 D/WK FOR UP TO 103 WK, DOSING IN 100 PPM GROUP DISCONTINUED AFTER 20 WK (STUDY DURATION: 104) was “inactive; negative”, the carcinogen call (Species: MOUSE, Strain/Sex: BDF1/FEMALE, Route: INHALATION, Dose: 0, 4, 16, 64 PPM 6 HR/D 5 D/WK FOR 104 WK (STUDY DURATION: 105 WK), Dose: 0, 4, 16, 64 PPM 6 HR/D 5 D/WK FOR 104 WK (STUDY DURATION: 105 WK)) was “inactive; negative” and the carcinogen call (Species: MOUSE, Strain/Sex: BDF1/MALE, Route: INHALATION, Dose: 0, 4, 16, 64 PPM 6 HR/D 5 D/WK FOR 104 WK (STUDY DURATION: 105 WK), Dose: 0, 4, 16, 64 PPM 6 HR/D 5 D/WK FOR 104 WK (STUDY DURATION: 105 WK)) was “inactive; negative”. The carcinogen call (Species: RAT, Strain/Sex: F344/FEMALE, Route: INHALATION, Dose: 0, 4, 20, 100 PPM 6 HR/D 5 D/WK FOR 104 WK (STUDY DURATION: 105 WK), Dose: 0, 4, 20, 100 PPM 6 HR/D 5 D/WK FOR 104 WK (STUDY DURATION: 105 WK)) was “inactive; negative”, the carcinogen call (Species: RAT, Strain/Sex: F344/FEMALE, Route: ORAL) was “inactive; negative” and the carcinogen call (Species: RAT, Strain/Sex: F344/MALE, Route: INHALATION, Dose: 0, 4, 20, 100 PPM 6 HR/D 5 D/WK FOR 104 WK (STUDY DURATION: 105 WK), Dose: 0, 4, 20, 100 PPM 6 HR/D 5 D/WK FOR 104 WK (STUDY DURATION: 105 WK)) was “inactive; negative”. The carcinogen call (Species: RAT, Strain/Sex: F344/MALE, Route: ORAL) was “inactive; negative”, the carcinogen call (Species: RAT, Strain/Sex: WISTAR/FEMALE, Route: GAVAGE, Dose: 0.4, 2, 10, 50 MG/KG IN ARACHIS OIL 5/WK FOR 13 WK, Dose: 0.4, 2, 10, 50 MG/KG IN ARACHIS OIL 5/WK FOR 13 WK, Tumor Site: Type of Lesion: FORESTOMACH: CARCINOMA) was “active; positive” and the carcinogen call (Species: RAT, Strain/Sex: WISTAR/FEMALE, Route: INHALATION, Dose: 0, 3, 30, 90 PPM 6 HR/D 5 D/WK FOR 29 MO (STUDY DURATION: 29 MO), Dose: 0, 3, 30, 90 PPM 6 HR/D 5 D/WK FOR 29 MO (STUDY DURATION: 29 MO)) was “inactive; negative”. The carcinogen call (Species: RAT, Strain/Sex: WISTAR/MALE, Route: GAVAGE, Dose: 0.4, 2, 10, 50 MG/KG IN ARACHIS OIL 5/WK FOR 13 WK, Dose: 0.4, 2, 10, 50 MG/KG IN ARACHIS OIL 5/WK FOR 13 WK, Tumor Site: Type of Lesion: FORESTOMACH: PAPILLOMA, CARCINOMA) was “active; positive” and the carcinogen call (Species: RAT, Strain/Sex: WISTAR/MALE, Route: INHALATION, Dose: 0, 3, 30, 90 PPM 6 HR/D 5 D/WK FOR 29 MO (STUDY DURATION: 29 MO), Dose: 0, 3, 30, 90 PPM 6 HR/D 5 D/WK FOR 29 MO (STUDY DURATION: 29 MO)) was “inactive; negative”.
For `CC(C)(C)NC(=O)[C@H]1CC[C@H]2[C@@H]3CC[C@H]4NC(=O)C=C[C@]4(C)[C@H]3CC[C@]12C`, the carcinogen call (Species: MOUSE, Strain/Sex: CD-1/MALE, Route: GAVAGE, Dose: 0, 2.5, 25, 250 MG/KG/D FOR 83 WK (STUDY DURATION: 83 WK), Dose: 0, 2.5, 25, 250 MG/KG/D FOR 83 WK (STUDY DURATION: 83 WK), Tumor Site: Type of Lesion: TESTES: LEYDIG CELL ADENOMA) was “active; positive”.
For `Cc1c(N)cccc1N`, the carcinogen call (Species: MOUSE, Strain/Sex: B6C3F1/FEMALE, Route: ORAL, Dose: 0, 50, 100 PPM IN DIET, Dose: 0, 50, 100 PPM IN DIET) was “inactive; negative”, the carcinogen call (Species: MOUSE, Strain/Sex: B6C3F1/MALE, Route: ORAL, Dose: 0, 50, 100 PPM IN DIET, Dose: 0, 50, 100 PPM IN DIET) was “inactive; negative” and the carcinogen call (Species: RAT, Strain/Sex: F344/FEMALE, Route: ORAL, Dose: 0, 250, 500 PPM IN DIET, Dose: 0, 250, 500 PPM IN DIET) was “inactive; negative”. For the same molecule, the carcinogen call (Species: RAT, Strain/Sex: F344/MALE, Route: ORAL, Dose: 0, 250, 500 PPM IN DIET, Dose: 0, 250, 500 PPM IN DIET) was “inactive; negative”.

From PubChem BioAssay AID1259411 (Chemical Carcinogenesis Research Information System (CCRIS), 2018)
